Like-named read-outs stand apart in the source and are kept apart here.
Tests used:
[1] = Stability of salt solutions observed in the screening; type: physicochemical; conditions: certain salt solutions; strong discoloration
Excerpt: The results of table 3 show clearly that certain acids allow significant differences in solubility between investigated salts. In this screening especially differences between product amines and the commonly used donor amines isopropylamine/alanine were targeted. Based on this consideration the following acids appear most applicable: 34CA, 34NA, 43CNA and 3DPPA. In addition, 2DPPA was identified as suitable acid. Acids with less strong differences are PCPA, 24CNA, 25CNA, 35DNOT, 3NA and 435CNBA, which might be useful for other product amines.

[2] = donor amine salt
[3] = tested on: amine transaminases AfATA, GzATA, NfATA, AoATA, AtATA, MvATA, SpATA; type: biochemical

## O=C(O)C1(c2ccccc2)CCCC1 [PCPA, 1-Phenylcyclo-pentane-carboxylic acid]
[1]
  stability of salt solutions: unknown decomposition reaction

## CC(C)N.O=C(O)c1ccc(Cl)c([N+](=O)[O-])c1 [Compound 5, isopropylamine salt of 4-chloro-3-nitrobenzoic acid (43CNA)]
[2]
  solubility: 993

## O=C(O)CC(c1ccccc1)c1ccccc1 [Compound 3DPPA, 3,3-diphenylpropionic acid]
[3]
  inhibition of amine transaminases: does not significantly inhibit

## O=C(O)c1ccc(Cl)c([N+](=O)[O-])c1 [Compound 43CNA, 4-chloro-3-nitro-benzoic acid]
[3]; pH 7.5
  inhibition of amine transaminases: strongly inhibited

## O=C(O)C(c1ccccc1)c1ccccc1 [DPAA, diphenylacetic acid]
[3]; pH 7.5
  inhibition of amine transaminases: strongly inhibited
